Data taken from PubChem BioAssay (NCI).
Where “and” joins values, the source holds several entries; their conditions need not be identical. Equal values may be shown once.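 These data come from cells grown in 96-well plates and exposed to compound for 48 hours at five concentrations. Here, GI50 denotes the concentration required for 50% inhibition of growth. TGI marks complete inhibition of growth.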

How the values were obtained:
Assay in all cases: DTP human tumour cell line panel, 48 h
SR leukemia = test system: SR leukemia
SNB-75 CNS = test system: SNB-75 CNS
K-562 leukemia = test system: K-562 leukemia
MOLT-4 leukemia = test system: MOLT-4 leukemia
UACC-257 melanoma = test system: UACC-257 melanoma
SK-MEL-28 melanoma = test system: SK-MEL-28 melanoma
M14 melanoma = test system: M14 melanoma
MDA-MB-435 = test system: MDA-MB-435
RXF 393 renal = test system: RXF 393 renal
HCT-116 colon = test system: HCT-116 colon

Structure (SMILES) | GI50 (SR leukemia) | TGI (SR leukemia) | TGI (SNB-75 CNS) | TGI (K-562 leukemia) | GI50 (MOLT-4 leukemia) | TGI (MOLT-4 leukemia) | GI50 (UACC-257 melanoma) | TGI (UACC-257 melanoma) | GI50 (SK-MEL-28 melanoma) | TGI (SK-MEL-28 melanoma) | GI50 (M14 melanoma) | TGI (M14 melanoma) | GI50 (MDA-MB-435) | TGI (MDA-MB-435) | GI50 (RXF 393 renal) | TGI (RXF 393 renal) | GI50 (HCT-116 colon) | TGI (HCT-116 colon) | GI50 (SNB-75 CNS) | GI50 (K-562 leukemia)
Cn1cnc(SC2=CC(=O)C=C3S[C@H]4C[C@@]23c2c(c(O)c3c5c2=NCCC=5C=N3)N4)c1CC(N)C(=O)O (stereo partly drawn) | 20.9 µM | 98.9 µM | 34.5 µM | > 87 µM | 2.99 µM | 8.98 µM | 11.6 µM | 23.8 µM | 16.2 µM | 30.4 µM | 15.1 µM | 28.6 µM | 1.88 µM | 3.44 µM | 10.6 µM | 23.8 µM | 2.24 µM | 4.88 µM | – | –
[Mn+3].[O-][Cl+3]([O-])([O-])O.[O-]c1ccccc1C=NCCN1CC1.[O-]c1ccccc1C=NCCN1CC1 | 18.4 µM | 39.4 µM | 70.1 µM | 42.4 µM | 5.57 µM | 25.4 µM | 18.1 µM | 46.2 µM | 35.8 µM | > 100 µM | 26.9 µM | > 100 µM | 37 µM | > 100 µM | 63 µM | > 100 µM | 15.1 µM | > 100 µM | 25.6 µM | 20.5 µM
C/C(=N\N)C(CN1CCOCC1)C(c1ccccc1)c1c(O)c2ccccc2oc1=O (stereo not drawn) | – | > 100 µM | > 100 µM | > 100 µM | – | > 80.8 µM | – | > 100 µM | – | > 100 µM | – | > 100 µM | – | > 100 µM | – | > 51.9 µM | – | > 100 µM | – | –
C[C@]1(c2nc3c(C(N)=O)cccc3[nH]2)CCCN1 | 19.5 µM and 10.4 µM | > 90 µM and 51.4 µM | > 100 µM | > 100 µM | > 100 µM | > 100 µM | 99.9 µM and > 100 µM | > 100 µM | 75.1 µM and > 100 µM | > 100 µM | > 100 µM | > 100 µM | > 100 µM | > 100 µM | > 90.3 µM | > 100 µM | 48.2 µM and 65.7 µM | > 100 µM | > 100 µM | > 100 µM
NC(CCl)=NCC12CC3CC(CC(C3)C1)C2 | 0.116 µM | 0.706 µM | 15.4 µM | 5.21 µM | 0.333 µM | 1.73 µM | 1.75 µM | 5.27 µM | 1.58 µM | 15.5 µM | 1.32 µM | 4.39 µM | 0.474 µM | 7.11 µM | 0.44 µM | 5.4 µM | 0.41 µM | 2.56 µM | 2.21 µM | 0.5 µM
